The results in this text go back to patent US8487121B2, “Chromane derivatives as TRPV3 modulators” (Glenmark Pharmaceuticals S.A., priority 2007, dated 2013).

The inhibition is the relative decrease from the control value, in per cent. Broadly, the IC50 is the concentration at which inhibition is half-maximal.

In this assay the target is T1, Human TRPV3 (Homo sapiens, UniProt Q8NET8).
T1 construct: expressed in transfected cells; host or cells: CHO cells (G-418 selected)
T1 sequence (Q8NET8 1-790): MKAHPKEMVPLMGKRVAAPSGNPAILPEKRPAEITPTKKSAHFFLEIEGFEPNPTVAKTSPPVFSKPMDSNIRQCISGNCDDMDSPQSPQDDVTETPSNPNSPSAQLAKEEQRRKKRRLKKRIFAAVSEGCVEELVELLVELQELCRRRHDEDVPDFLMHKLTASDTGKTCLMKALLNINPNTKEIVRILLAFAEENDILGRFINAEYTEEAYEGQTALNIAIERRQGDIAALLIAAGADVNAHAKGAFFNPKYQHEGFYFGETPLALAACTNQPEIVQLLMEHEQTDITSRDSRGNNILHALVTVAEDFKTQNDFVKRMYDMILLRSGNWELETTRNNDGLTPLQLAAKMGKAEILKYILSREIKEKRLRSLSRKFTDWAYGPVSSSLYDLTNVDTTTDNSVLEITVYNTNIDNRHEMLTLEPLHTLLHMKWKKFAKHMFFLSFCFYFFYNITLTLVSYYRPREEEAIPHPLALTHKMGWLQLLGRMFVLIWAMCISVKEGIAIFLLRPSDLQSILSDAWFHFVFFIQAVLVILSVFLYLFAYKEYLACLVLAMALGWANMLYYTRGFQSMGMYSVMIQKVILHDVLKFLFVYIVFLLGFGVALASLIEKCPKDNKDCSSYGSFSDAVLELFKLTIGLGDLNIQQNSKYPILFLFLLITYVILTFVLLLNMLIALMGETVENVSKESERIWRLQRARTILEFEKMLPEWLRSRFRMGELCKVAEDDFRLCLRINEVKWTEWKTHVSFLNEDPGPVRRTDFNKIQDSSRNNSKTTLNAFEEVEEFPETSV
The assay is described as follows: 45Calcium uptake assay: inhibition of 2-APB induced cellular uptake of radioactive calcium. The format is cell-based. The conditions noted are these: human TRPV3 expressing CHO cells, 2-APB 500 μM; for inhibition at 1 µM: 1.0 μM compound, read-out: Percentage inhibition at 1.0 μM; for inhibition at 10 µM: 10.0 μM compound, read-out: Percentage inhibition at 10.0 μM. From the text: The illustrative examples of the present invention are screened for TRPV3 activity according to a modified procedure described in Toth, A. et al. Life Sciences (2003), 73, 487-498. The screening of the compounds can be carried out by other methods and procedures known to a person skilled in the art. Such screening methods may be found in Hu, H-Z., et al. J. Biol. Chem. (2004), 279, 35741-35748; Smith, G. D et al. Nature (2002), 418, 186-190 and Peier, A. M., et al. Science (2002), 296, 2046-2049.
Screening for TRPV3 Antagonist Using the ^45Calcium Uptake Assay:
The inhibition of TRPV3 receptor activation was followed as inhibition of 2-APB induced cellular uptake of radioactive calcium. Test compounds were dissolved in DMSO to prepare 20 mM stock and then diluted using plain medium with 0.1% BSA and 1.8 mM CaCl2 to get desired concentration. Final concentration of DMSO in the reaction was 0.5% (v/v). Human TRPV3 expressing CHO cells were grown in F-12 DMEM medium with 10% FBS, 1% penicillin-streptomycin solution, 400 μg/ml of G-418. Cells were seeded 24 h prior to the assay in 96 well plates so as to get ˜50,000 cells per well on the day of experiment. Cells were treated with test compounds for 10 minutes followed by addition of 2-APB at a final concentration of 500 μM and 5 μCi/ml ^45Ca^+2 for 4 minutes. Cells were washed and lysed using buffer containing 1% Triton X-100, 0.1% deoxycholate and 0.1% SDS. Radioactivity in the lysate was measured in Packardt Top count after addition of liquid scintillant.
Concentration response curves were plotted as a % of maximal response obtained in the absence of test antagonist. IC50 value was calculated from concentration response curve by nonlinear regression analysis using GraphPad PRISM software.
Percentage inhibition at concentrations of 1.0 μM and 10.0 μM are given in the table along with IC50 (nM) values for selected examples.

For `O=C(Cc1ccccc1)NC1CC2(CCC2)Oc2c(Cl)cccc21` (centres unmarked) [Example 1, N-(8-Chloro-3,4-dihydrospiro[chromene-2,1′-cyclobutan]-4-yl)-2-phenylacetamide], the inhibition at 1 µM worked out at 1.7% and the inhibition at 10 µM was determined as 10%.

On to `COc1ccccc1CC(=O)NC1CC2(CCC2)Oc2ccc(Cl)cc21` (centres unmarked) [Example 2, N-(6-Chloro-3,4-dihydrospiro[chromene-2,1′-cyclobutan]-4-yl)-2-(2-methoxyphenyl)-acetamide], for which the inhibition at 1 µM was 12%, the inhibition at 10 µM amounted to 79% and the IC50 was above 2 µM.

Take `CS(=O)(=O)Nc1ccccc1CC(=O)NC1CC2(CCC2)Oc2ccc(Cl)cc21` (centres unmarked) [Example 3, N-(6-chloro-3,4-dihydrospiro[chromene-2,1′cyclobutan]-4-yl)-2-{2-[(methylsulfonyl)-amino]phenyl}acetamide]: the inhibition at 1 µM turned out to be 0% and the inhibition at 10 µM stood at 33.1%.

Regarding `COc1cccc(CC(=O)NC2CC3(CCC3)Oc3ccc(Cl)cc32)c1OC1CCCC1` (centres unmarked) [Example 4, N-(6-Chloro-3,4-dihydrospiro[chromene-2,1′-cyclobutan]-4-yl)-2-(2-(cyclopentyloxy)-3-methoxyphenyl)acetamide], the inhibition at 1 µM was 37.2% and the inhibition at 10 µM is 66.2%.

For the compound `COc1cccc(CC(=O)N[C@@H]2CC3(CCC3)Oc3c(Cl)cccc32)c1OC1CCCC1` [Example 5, N-[(4R)-8-Chloro-3,4-dihydrospiro[chromene-2,1′-cyclobutan]-4-yl]-2-(2-cyclopentyloxy-3-methoxy)phenylacetamide], the inhibition at 1 µM is 11.7% and the inhibition at 10 µM came out at 86.8%.

In the case of `COc1cccc(CC(=O)N[C@H]2CC3(CCC3)Oc3c(Cl)cccc32)c1OC1CCCC1` [Example 6, N-[(4S)-8-Chloro-3,4-dihydrospiro[chromene-2,1′-cyclobutan]-4-yl]-2-(2-cyclopentyl-oxy-3-methoxy)phenylacetamide], the inhibition at 1 µM is 35.3% and the inhibition at 10 µM was 89%.

For the compound `COc1ccc(CC(=O)NC2CC3(CCC3)Oc3ccc(Cl)cc32)cc1OC` (centres unmarked) [Example 7, N-(6-Chloro-3,4-dihydrospiro[chromene-2,1′-cyclobutan]-4-yl)-2-(3,4-dimethoxyphenyl)acetamide], the inhibition at 1 µM turned out to be 9.2% and the inhibition at 10 µM amounted to 20.3%.

For the compound `O=C(Cc1ccccn1)NC1CC2(CCC2)Oc2ccc(Cl)cc21` (centres unmarked) [Example 8, N-(6-Chloro-3,4-dihydrospiro[chromene-2,1′-cyclobutan]-4-yl)-2-pyridin-2-ylacetamide], the inhibition at 1 µM came to 3.8% and the inhibition at 10 µM came out at 22.5%.

Take `O=C(Cc1cccc2ccccc12)NC1CC2(CCC2)Oc2ccccc21` (centres unmarked) [Example 9, N-(3,4-dihydrospiro[chromene-2,1′-cyclobutan]-4-yl)-2-(1-naphthyl)acetamide]: the inhibition at 1 µM was 11.7% and the inhibition at 10 µM is 68.5%.

Take `O=C(Cc1cccc2ccccc12)NC1CC2(CCC2)Oc2ccc(F)cc21` (centres unmarked) [Example 10]: the inhibition at 1 µM amounted to 13.7% and the inhibition at 10 µM stood at 92.4%.

With `O=C(Cc1cccc2ccccc12)N[C@@H]1CC2(CCC2)Oc2c(F)cc(F)cc21` [Example 11, N-[(4R)-6,8-difluoro-3,4-dihydrospiro[chromene-2,1′-cyclobutan]-4-yl]-2-(1-naphthyl)acetamide], the inhibition at 1 µM was found to be 23.6% and the inhibition at 10 µM amounted to 76%.

`O=C(Cc1cccc2ccccc12)N[C@@H]1CC2(CCC2)Oc2ccc(Cl)cc21` [Example 12, N-[(4R)-6-Chloro-3,4-dihydrospiro[chromene-2,1′-cyclobutan]-4-yl]-2-(1-naphthyl)acetamide]: the IC50 was 0.5 to 1 µM.

Take `O=C(Cc1cccc2ccccc12)N[C@H]1CC2(CCC2)Oc2ccc(Cl)cc21` [Example 13, N-[(4S)-6-Chloro-3,4-dihydrospiro[chromene-2,1′-cyclobutan]-4-yl]-2-(1-naphthyl)-acetamide]: the inhibition at 1 µM is 5.9%, the inhibition at 10 µM was determined as 87.6% and the IC50 was in the range of 1 to 2 µM.

With `O=C(Cc1cccc2ccccc12)NC1CC2(CCC2)Oc2cc(Cl)ccc21` (centres unmarked) [Example 14, N-(7-Chloro-3,4-dihydrospiro[chromene-2,1′-cyclobutan]-4-yl)-2-(1-naphthyl)acetamide], the inhibition at 1 µM was found to be 9.8% and the inhibition at 10 µM was 78.8%.

For `O=C(Cc1cccc2ccccc12)N[C@@H]1CC2(CCC2)Oc2c(Cl)cccc21` [Example 15, N-[(4R)-8-Chloro-3,4-dihydrospiro[chromene-2,1′-cyclobutan]-4-yl]-2-(1-naphthyl)-acetamide], the inhibition at 10 µM amounted to 27.3%.

On to `O=C(Cc1cccc2ccccc12)N[C@H]1CC2(CCC2)Oc2c(Cl)cccc21` [Example 16, N-[(4S)-8-Chloro-3,4-dihydrospiro[chromene-2,1′-cyclobutan]-4-yl]-2-(1-naphthyl)-acetamide], for which the inhibition at 1 µM was 0% and the inhibition at 10 µM stood at 35.2%.

With `O=C(Cc1cccc2ccccc12)NC1CC2(CCC2)Oc2cccc(O)c21` (centres unmarked) [Example 17, N-(5-Hydroxy-3,4-dihydrospiro[chromene-2,1′-cyclobutan]-4-yl)-2-(1-naphthyl)-acetamide], the inhibition at 1 µM is 21.9% and the inhibition at 10 µM turned out to be 70%.

For the compound `O=C(Cc1ccc2ccccc2c1)NC1CC2(CCC2)Oc2ccc(Cl)cc21` (centres unmarked) [Example 18, N-(6-Chloro-3,4-dihydrospiro[chromene-2,1′-cyclobutan]-4-yl)-2-(2-naphthyl)acetamide], the inhibition at 1 µM is 36.1% and the inhibition at 10 µM came out at 72.3%.

For `COc1ccc2cc([C@H](C)C(=O)N[C@@H]3CC4(CCC4)Oc4ccc(Cl)cc43)ccc2c1` [Example 19, (2S)—N-[(4R)-6-Chloro-3,4-dihydrospiro[chromene-2,1′-cyclobutan]-4-yl]-2-(6-methoxy-2-naphthyl)propanamide], the inhibition at 1 µM was 23.1% and the inhibition at 10 µM was found to be 61.7%.

As to `COc1ccc2cc([C@H](C)C(=O)N[C@H]3CC4(CCC4)Oc4ccc(Cl)cc43)ccc2c1` [Example 20, (2S)—N-[(4S)-6-Chloro-3,4-dihydrospiro[chromene-2,1′-cyclobutan]-4-yl]-2-(6-methoxy-2-naphthyl)propanamide], the inhibition at 1 µM came out at 19.3% and the inhibition at 10 µM was found to be 50.9%.

With `O=C(CC1CCCc2ccccc21)NC1CC2(CCC2)Oc2ccc(Cl)cc21` (centres unmarked) [Example 21, N-(6-Chloro-3,4-dihydrospiro[chromene-2,1′-cyclobutan]-4-yl)-2-(1,2,3,4-tetrahydronaphthalen-1-yl)acetamide], the inhibition at 1 µM stood at 63.5%, the inhibition at 10 µM amounted to 93.6% and the IC50 fell in the range of 0.5 to 1 µM.

For the compound `O=C(CC1CCc2ccccc2C1)NC1CC2(CCC2)Oc2ccc(Cl)cc21` (centres unmarked) [Example 22, N-[(6-Chloro-3,4-dihydrospiro[chromene-2,1′-cyclobutan]-4-yl)]-2-(1,2,3,4-tetrahydronaphthalen-2-yl)acetamide], the inhibition at 1 µM came to 35.3% and the inhibition at 10 µM was determined as 72.1%.

Take `O=C(Cc1ccc2c(c1)OCO2)NC1CC2(CCC2)Oc2ccc(Cl)cc21` (centres unmarked) [Example 23, 2-(1,3-Benzodioxol-5-yl)-N-(6-chloro-3,4-dihydrospiro[chromene-2,1′-cyclobutan]-4-yl)acetamide]: the inhibition at 1 µM is 6.2% and the inhibition at 10 µM was 65.3%.
